Measurements as given in PubChem BioAssay (NCI).
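Dose response: 5 concentrations. Exposure: 48 h. Format: 96-well plates. Endpoint: linear interpolation; highest concentration if not reached. GI50 = concentration required for 50% inhibition of growth. TGI: concentration producing complete growth inhibition.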

Key:
Test in all cases: NCI anticancer screen, dose series, 48 h
786-0 renal = test system: 786-0 renal
A498 renal = test system: A498 renal
A549 NSCLC = test system: A549 NSCLC
ACHN renal = test system: ACHN renal
BT-549 breast = test system: BT-549 breast
CAKI-1 renal = test system: CAKI-1 renal
CCRF-CEM leukemia = test system: CCRF-CEM leukemia
DU-145 prostate = test system: DU-145 prostate
EKVX NSCLC = test system: EKVX NSCLC
HCC-2998 colon = test system: HCC-2998 colon
HCT-116 colon = test system: HCT-116 colon
HCT-15 colon = test system: HCT-15 colon
HL-60(TB) leukemia = test system: HL-60(TB) leukemia
HOP-62 NSCLC = test system: HOP-62 NSCLC
HOP-92 NSCLC = test system: HOP-92 NSCLC
HS 578T breast = test system: HS 578T breast
HT29 colon = test system: HT29 colon
IGROV1 ovarian = test system: IGROV1 ovarian
K-562 leukemia = test system: K-562 leukemia
KM12 colon = test system: KM12 colon
LOX IMVI melanoma = test system: LOX IMVI melanoma
MALME-3M melanoma = test system: MALME-3M melanoma
MCF7 breast = test system: MCF7 breast
MDA-MB-231 breast = test system: MDA-MB-231 breast
MDA-MB-435 = test system: MDA-MB-435
MOLT-4 leukemia = test system: MOLT-4 leukemia
NCI-H226 lung = test system: NCI-H226 lung
NCI-H23 lung = test system: NCI-H23 lung
NCI-H460 lung = test system: NCI-H460 lung
NCI-H522 lung = test system: NCI-H522 lung
NCI/ADR-RES ovarian = test system: NCI/ADR-RES ovarian
OVCAR-3 ovarian = test system: OVCAR-3 ovarian
OVCAR-4 ovarian = test system: OVCAR-4 ovarian
OVCAR-5 ovarian = test system: OVCAR-5 ovarian
OVCAR-8 ovarian = test system: OVCAR-8 ovarian
PC-3 prostate = test system: PC-3 prostate
RPMI-8226 leukemia = test system: RPMI-8226 leukemia
RXF 393 renal = test system: RXF 393 renal
SF-268 CNS = test system: SF-268 CNS
SF-295 CNS = test system: SF-295 CNS
SF-539 CNS = test system: SF-539 CNS
SK-MEL-2 melanoma = test system: SK-MEL-2 melanoma
SK-MEL-28 melanoma = test system: SK-MEL-28 melanoma
SK-MEL-5 melanoma = test system: SK-MEL-5 melanoma
SK-OV-3 ovarian = test system: SK-OV-3 ovarian
SN12C renal = test system: SN12C renal
SNB-19 CNS = test system: SNB-19 CNS
SNB-75 CNS = test system: SNB-75 CNS
SR leukemia = test system: SR leukemia
SW-620 colon = test system: SW-620 colon
T-47D breast = test system: T-47D breast
TK-10 renal = test system: TK-10 renal
U251 CNS = test system: U251 CNS
UACC-257 melanoma = test system: UACC-257 melanoma
UACC-62 melanoma = test system: UACC-62 melanoma
UO-31 renal = test system: UO-31 renal
COLO 205 colon = test system: COLO 205 colon
M14 melanoma = test system: M14 melanoma

Structure (SMILES): Cl.[Pt].[c-]1ccccc1-c1ccccn1.c1ccc(P(c2ccccc2)C([PH+](c2ccccc2)c2ccccc2)[PH+](c2ccccc2)c2ccccc2)cc1
- GI50 (786-0 renal): 3.2 µM
- TGI (786-0 renal): 14.4 µM
- GI50 (A498 renal): 1.85 µM
- TGI (A498 renal): 5.89 µM
- GI50 (A549 NSCLC): 1.32 µM
- TGI (A549 NSCLC): 15.1 µM
- GI50 (ACHN renal): 1.84 µM
- TGI (ACHN renal): 11.5 µM
- GI50 (BT-549 breast): 2.09 µM
- TGI (BT-549 breast): 6.82 µM
- GI50 (CAKI-1 renal): 1.81 µM
- TGI (CAKI-1 renal): 13.1 µM
- GI50 (CCRF-CEM leukemia): 2.4 µM
- TGI (CCRF-CEM leukemia): > 100 µM
- GI50 (DU-145 prostate): 1.9 µM
- TGI (DU-145 prostate): 16.4 µM
- GI50 (EKVX NSCLC): 2.3 µM
- TGI (EKVX NSCLC): 62.2 µM
- GI50 (HCC-2998 colon): 3.64 µM
- TGI (HCC-2998 colon): 18.6 µM
- GI50 (HCT-116 colon): 1.58 µM
- TGI (HCT-116 colon): 7.11 µM
- GI50 (HCT-15 colon): 2.81 µM
- TGI (HCT-15 colon): > 100 µM
- GI50 (HL-60(TB) leukemia): 1.1 µM
- TGI (HL-60(TB) leukemia): 5.32 µM
- GI50 (HOP-62 NSCLC): 2.39 µM
- TGI (HOP-62 NSCLC): 9 µM
- GI50 (HOP-92 NSCLC): 1.41 µM
- TGI (HOP-92 NSCLC): 5.18 µM
- GI50 (HS 578T breast): 2.22 µM
- TGI (HS 578T breast): 20.8 µM
- GI50 (HT29 colon): 2.3 µM
- TGI (HT29 colon): 8.13 µM
- GI50 (IGROV1 ovarian): 2.18 µM
- TGI (IGROV1 ovarian): > 100 µM
- GI50 (K-562 leukemia): 0.658 µM
- TGI (K-562 leukemia): 13.6 µM
- GI50 (KM12 colon): 2.48 µM
- TGI (KM12 colon): 7.22 µM
- GI50 (LOX IMVI melanoma): 1.65 µM
- TGI (LOX IMVI melanoma): 4.6 µM
- GI50 (MALME-3M melanoma): 0.42 µM
- TGI (MALME-3M melanoma): 2.65 µM
- GI50 (MCF7 breast): 1.52 µM
- TGI (MCF7 breast): 47 µM
- GI50 (MDA-MB-231 breast): 1.93 µM
- TGI (MDA-MB-231 breast): 5.24 µM
- GI50 (MDA-MB-435): 2.45 µM
- TGI (MDA-MB-435): 6.65 µM
- GI50 (MOLT-4 leukemia): 2.13 µM
- TGI (MOLT-4 leukemia): 11.6 µM
- GI50 (NCI-H226 lung): 1.88 µM
- TGI (NCI-H226 lung): 9.81 µM
- GI50 (NCI-H23 lung): 1.19 µM
- TGI (NCI-H23 lung): 18.4 µM
- GI50 (NCI-H460 lung): 2.29 µM
- TGI (NCI-H460 lung): 10 µM
- GI50 (NCI-H522 lung): 1.57 µM
- TGI (NCI-H522 lung): 7.14 µM
- GI50 (NCI/ADR-RES ovarian): 5.21 µM
- TGI (NCI/ADR-RES ovarian): 76.5 µM
- GI50 (OVCAR-3 ovarian): 1.59 µM
- TGI (OVCAR-3 ovarian): 7.99 µM
- GI50 (OVCAR-4 ovarian): 0.662 µM
- TGI (OVCAR-4 ovarian): 8.63 µM
- GI50 (OVCAR-5 ovarian): 2.9 µM
- TGI (OVCAR-5 ovarian): 23.9 µM
- GI50 (OVCAR-8 ovarian): 0.853 µM
- TGI (OVCAR-8 ovarian): > 100 µM
- GI50 (PC-3 prostate): 0.683 µM
- TGI (PC-3 prostate): 15.3 µM
- GI50 (RPMI-8226 leukemia): 0.525 µM
- TGI (RPMI-8226 leukemia): 3.66 µM
- GI50 (RXF 393 renal): 1.48 µM
- TGI (RXF 393 renal): 4.01 µM
- GI50 (SF-268 CNS): 2.59 µM
- TGI (SF-268 CNS): 20.9 µM
- GI50 (SF-295 CNS): 2.48 µM
- TGI (SF-295 CNS): 12.4 µM
- GI50 (SF-539 CNS): 1.54 µM
- TGI (SF-539 CNS): 5.6 µM
- GI50 (SK-MEL-2 melanoma): 2.09 µM
- TGI (SK-MEL-2 melanoma): 5.92 µM
- GI50 (SK-MEL-28 melanoma): 2.64 µM
- TGI (SK-MEL-28 melanoma): 9.7 µM
- GI50 (SK-MEL-5 melanoma): 1.25 µM
- TGI (SK-MEL-5 melanoma): 2.8 µM
- GI50 (SK-OV-3 ovarian): 3.57 µM
- TGI (SK-OV-3 ovarian): > 100 µM
- GI50 (SN12C renal): 0.942 µM
- TGI (SN12C renal): 7.03 µM
- GI50 (SNB-19 CNS): 0.764 µM
- TGI (SNB-19 CNS): 21.2 µM
- GI50 (SNB-75 CNS): 1.64 µM
- TGI (SNB-75 CNS): 23.5 µM
- GI50 (SR leukemia): 1.21 µM
- TGI (SR leukemia): 28.6 µM
- GI50 (SW-620 colon): 2.32 µM
- TGI (SW-620 colon): 8.31 µM
- GI50 (T-47D breast): 0.916 µM
- TGI (T-47D breast): 19.5 µM
- GI50 (TK-10 renal): 1.74 µM
- TGI (TK-10 renal): 15.5 µM
- GI50 (U251 CNS): 0.577 µM
- TGI (U251 CNS): 2.69 µM
- GI50 (UACC-257 melanoma): 3.26 µM
- TGI (UACC-257 melanoma): 38 µM
- GI50 (UACC-62 melanoma): 1.7 µM
- TGI (UACC-62 melanoma): 4.75 µM
- GI50 (UO-31 renal): 1.8 µM
- TGI (UO-31 renal): 6.28 µM

Structure (SMILES): Nc1ccc2c(c1)C(=O)c1ccccc1-2
- TGI (786-0 renal): > 100 µM
- TGI (A498 renal): > 100 µM
- TGI (A549 NSCLC): > 100 µM
- TGI (ACHN renal): > 100 µM
- TGI (BT-549 breast): 83.5 µM
- TGI (CAKI-1 renal): > 100 µM
- TGI (CCRF-CEM leukemia): > 100 µM
- TGI (COLO 205 colon): > 100 µM
- TGI (DU-145 prostate): > 100 µM
- TGI (EKVX NSCLC): > 100 µM
- TGI (HCC-2998 colon): > 100 µM
- TGI (HCT-116 colon): > 100 µM
- TGI (HCT-15 colon): > 100 µM
- TGI (HL-60(TB) leukemia): > 100 µM
- TGI (HOP-62 NSCLC): > 100 µM
- TGI (HOP-92 NSCLC): 91 µM
- TGI (HS 578T breast): > 100 µM
- TGI (HT29 colon): > 100 µM
- TGI (IGROV1 ovarian): > 100 µM
- TGI (K-562 leukemia): > 100 µM
- TGI (KM12 colon): > 100 µM
- TGI (LOX IMVI melanoma): > 100 µM
- TGI (M14 melanoma): > 100 µM
- TGI (MALME-3M melanoma): > 100 µM
- TGI (MCF7 breast): > 100 µM
- TGI (MDA-MB-231 breast): > 100 µM
- TGI (MDA-MB-435): > 100 µM
- TGI (MOLT-4 leukemia): 75.1 µM
- TGI (NCI-H226 lung): > 100 µM
- TGI (NCI-H23 lung): > 100 µM
- TGI (NCI-H460 lung): > 100 µM
- TGI (NCI-H522 lung): > 100 µM
- TGI (NCI/ADR-RES ovarian): > 100 µM
- TGI (OVCAR-3 ovarian): > 100 µM
- TGI (OVCAR-4 ovarian): > 100 µM
- TGI (OVCAR-5 ovarian): > 100 µM
- TGI (OVCAR-8 ovarian): > 100 µM
- TGI (PC-3 prostate): > 100 µM
- TGI (RPMI-8226 leukemia): > 100 µM
- TGI (RXF 393 renal): > 100 µM
- TGI (SF-268 CNS): > 100 µM
- TGI (SF-295 CNS): > 100 µM
- TGI (SF-539 CNS): > 100 µM
- TGI (SK-MEL-2 melanoma): > 100 µM
- TGI (SK-MEL-28 melanoma): > 100 µM
- TGI (SK-MEL-5 melanoma): > 100 µM
- TGI (SN12C renal): > 100 µM
- TGI (SNB-19 CNS): > 100 µM
- TGI (SNB-75 CNS): > 100 µM
- TGI (SR leukemia): > 100 µM
- TGI (SW-620 colon): > 100 µM
- TGI (T-47D breast): > 100 µM
- TGI (TK-10 renal): > 100 µM
- TGI (U251 CNS): > 100 µM
- TGI (UACC-257 melanoma): > 100 µM
- TGI (UACC-62 melanoma): > 100 µM
- TGI (UO-31 renal): > 100 µM
